From article PMC5651845, “A New Generation of Arachidonic Acid Analogues as Potential Neurological Agent Targeting Cytosolic Phospholipase A2” (Scientific Reports, 2017)

How the values were obtained:
recombinant cPLA2 = target: T1, recombinant cPLA2 (Homo sapiens, UniProt P47712); assay: EnzChek phospholipase A2 fluorogenic assay (IC50); format: biochemical
T1 construct: purchased US Biological P4074-03R
T1 sequence (P47712 1-749): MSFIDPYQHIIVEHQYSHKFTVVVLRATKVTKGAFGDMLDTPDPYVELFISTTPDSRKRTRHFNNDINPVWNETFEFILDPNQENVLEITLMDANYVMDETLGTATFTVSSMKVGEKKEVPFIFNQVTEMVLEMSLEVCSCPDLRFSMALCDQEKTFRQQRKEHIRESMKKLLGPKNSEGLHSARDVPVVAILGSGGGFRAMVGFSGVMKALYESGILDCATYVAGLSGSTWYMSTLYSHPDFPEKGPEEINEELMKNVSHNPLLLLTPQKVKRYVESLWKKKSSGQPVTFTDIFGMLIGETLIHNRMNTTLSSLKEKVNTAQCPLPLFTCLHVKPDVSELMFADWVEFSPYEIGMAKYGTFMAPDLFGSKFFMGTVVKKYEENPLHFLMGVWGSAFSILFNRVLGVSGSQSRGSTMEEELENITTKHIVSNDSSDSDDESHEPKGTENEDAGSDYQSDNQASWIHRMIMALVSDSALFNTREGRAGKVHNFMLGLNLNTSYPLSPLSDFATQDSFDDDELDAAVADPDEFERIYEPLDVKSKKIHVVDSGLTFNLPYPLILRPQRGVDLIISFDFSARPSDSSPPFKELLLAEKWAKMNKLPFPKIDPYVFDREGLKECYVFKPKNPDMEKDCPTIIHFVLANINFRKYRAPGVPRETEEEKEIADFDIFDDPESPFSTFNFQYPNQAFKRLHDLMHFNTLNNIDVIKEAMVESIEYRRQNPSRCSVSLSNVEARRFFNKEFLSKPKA
Procedure: The assay was conducted as described above. Instead of adding a fixed concentration of the test compound, various concentrations of compound were reconstituted in DMSO. 48 μL of 1X phospholipase A2 reaction buffer were added into each well of a 96-wells plate. This was followed by addition of 1 μL of recombinant cPLA2 (P4074-03R, US Biological) and 1 μL of the respective concentration of the test compound dissolved in DMSO. The reaction was initiated by adding 50 μL of the substrate solution and incubating at room temperature for 1 h. Fluorescence was measured using a Varioskan plate reader by exciting at 485 nm, while fluorescence emission was detected at 515 nm. Positive control was performed when 1 μL of test compound was replaced by vehicle DMSO. IC50 was expressed as the mean value of duplicate wells from three experiments.

[1] = system: ROS production in BV-2 cells; assay: ROS assay (CM-H2DCFDA) in LPS-stimulated BV-2 cells; format: cell-based, murine; conditions: 2, 10 and 20 μM, 2 µg/mL LPS, 14 h
Procedure: CM-H2DCFDA was used as the main detection reagent for ROS for this study. Being a chloromethyl derivative of the conventional H2DCFDA, it is better retained in the cells due to the reaction of its chloromethyl group with intracellular thiol species. In addition, esterase present in the cells would convert the acetate group found in CM-H2DCFDA into carboxylic acid, further retaining it in the cell. To investigate the ROS production by BV-2 cell stimulated with LPS, intracellular ROS was measured 14 h post-stimulation with CM-H2DCFDA fluorescence. A 2-fold increase in ROS was detected as compared to the control. […] This could be because the activation of ROS production might not be solely due to the inflammatory pathway mechanism involving cPLA2. It was reported in previous studies that a multitude of several other processes producing ROS may be at work[51],[52].
20,000 BV-2 cells were seeded into a 96-well plate in 100 uL of culture medium and allowed to grow overnight. When a 90% cell confluency was observed, lipopolysaccharide pre-dissolved in culture medium to achieve a concentration of 2 μg/mL was added to each well of the 96 well. Different concentrations of test compounds in DMSO were added to the LPS containing medium and was then transferred to the cells. […] Fluorescence detection was done by exciting the dye at 485 nm and detection of emission at 525 nm. […]

[2] = PAMPA with porcine brain lipids (BBB permeation); conditions: pig, pH 7.4
Procedure: Thus to explore whether 2i is able to penetrate into the brain, we used PAMPA with porcine brain lipids as the lipid barrier. […] A minimum Pe of […] × 10^−6 cm/s has been cited as the threshold for permeability across the blood brain barrier.
The Parallel Artificial Membrane Permeability Assay (PAMPA) was used to determine the effective permeability (Pe) of 2i. The method reported by Di et al.[53] was followed with modifications. Determinations were carried out on MultiScreen-IP PAMPA assay (donor) plates (MAIPNTR10) and MultiScreen Receiver Plates (MATRNPS50) from Millipore Corporation (USA) with porcine polar brain lipids (Avanti Polar Lipids Inc, Alabaster, AL) as the lipid barrier.
An aliquot (5 µL) of 2% porcine brain lipids in dodecane (ReagentPlus®, Sigma Aldrich, USA) was dispensed into the donor well. A stock solution (5 mM) of 2i prepared in DMSO was diluted with 1x phosphate buffer (PBS, pH 7.4) to give a 50 µM solution. An aliquot (300 µL) of the solution was dispensed into the donor well and an equal volume of buffer (1xPBS with 1% DMSO) was added to the corresponding acceptor well. The donor and acceptor plates were assembled, the unit was placed in a humidified box and gently agitated on a mini shaker at room temperature (25 °C) for 16 h. After this time, aliquots (200 µL) were withdrawn from the donor and acceptor wells, diluted separately to 1 mL with PBS, and quantified at λmax of 290 nm on a Shimadzu UV-1800 Spectrophotometer.
300 µL aliquots of stock solutions (500 µM, 1xPBS, 0.1% DMSO) were dispensed to donor wells as described earlier. Quantification was by UV at λmax of 272 nm (caffeine), 284 nm (carbamazepine), 330 nm (quinidine), 280 nm (dopamine) and 288 nm (propanolol). […] Pe was obtained from (3):3 Pe=−2.303×{VAVD/[(VA+VD)×A×t]}×log{1−[(VA+VD)/(VD.S)]×CA(t)/CD(0)} where VA and VD are the volumes of acceptor (cm^3) and donor (cm^3) wells respectively, A is the area of the surface area of the membrane (0.24 cm^2), t is the permeation time (s). The Pe of each compound was obtained from at least 3 separate experiments using 2 different stock solutions. For each independent determination, triplicates (3 wells) were run for each compound.

[3] = Aqueous solubility (Multiscreen Solubility filter plates); format: physicochemical; conditions: aqueous buffer, kinetic from dmso stock; pH 7.4, 24 h, 25 °C
Procedure: Solubility determinations were carried out on Multiscreen® Solubility filter plates (Millipore-MSSLBPC10) from Millipore Corporation (MA, USA) following the protocol (PC2445EN00) from the manufacturer.

Compound: CCCCC/C=C\C/C=C\C/C=C\C/C=C\CCCCC(=O)Nc1cccc(C(=O)O)c1 [2i]
- IC50 (recombinant cPLA2): 2900 ± 200 nM
- fold stronger cPLA2 inhibition than 1a (from IC50) (recombinant cPLA2; relative to 1a): 5.5 fold
- ROS level, concentration dependence [1]: dose-dependent decrease in ROS
- Papp at 16 h, 50 µM [2]: 12.3 ± 1.46 ×10⁻⁶ cm/s
- solubility at 24 h [3]: > 100 µM
